The source of these data is patent publication US11077090B2, “Compounds and compositions and uses thereof” (Sunovion Pharmaceuticals Inc., priority 2016, dated 2021).

The assay relates to compound-treated mice. Put plainly: Neuropharmacological assay (SmartCube): behavioral activity signature and minimal effective dose. The assay is classed as in vivo. The settings on record: for minimal effective dose: Mus musculus, ip, MED = dose having 50% or more total activity, read-out: Potency: minimal effective dose (MED), binned; for AD: ADHD (probability of activity signature) / AG: analgesic (probability of activity signature) / AX: anxiolytic (probability of activity signature) / CE: cognitive enhancer (probability of activity signature) / DP: anti-depressant (probability of activity signature) / MS: mood stabilizer (probability of activity signature) / PS: anti-psychotic (probability of activity signature) / SD: sedative hypnotic (probability of activity signature) / UN: uncharacterized CNS activity (probability of activity signature): i.p. 15 min before test, most efficacious dose(s). The method in brief:
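Video-recorded behavior is compared algorithmically against a reference-compound database, yielding class probabilities (best dose reported). Compounds given i.p. in NMP/PEG/propylene glycol 15 min pre-test at 3 doses; potency as MED, the dose (mpk, range usually 0.3–30) reaching ≥50% total activity.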

One may read the minimal effective dose as the smallest amount tested that counted as effective. Turning to `CC[C@@H]1OCc2ccccc2[C@@H]1N` (single isomer, unassigned) [Example 191], the minimal effective dose is under 3 mg/kg, the “AD: ADHD (probability of activity signature)” value (“AD: ADHD” for short) was “+ (LOQ ≤ + <5%)”, the “AG: analgesic (probability of activity signature)” value (“AG: analgesic” below) is listed as “++ (5% ≤ ++ <25%)” and the “AX: anxiolytic (probability of activity signature)” value (“AX: anxiolytic” below) is “++ (5% ≤ ++ <25%)”. In addition, the “CE: cognitive enhancer (probability of activity signature)” value (“CE: cognitive enhancer” for short) was “++ (5% ≤ ++ <25%)”, the “DP: anti-depressant (probability of activity signature)” value (from here on “DP: anti-depressant”) is recorded as “++ (5% ≤ ++ <25%)”, the “MS: mood stabilizer (probability of activity signature)” value (shortened to “MS: mood stabilizer”) is “+ (LOQ ≤ + <5%)” and the “PS: anti-psychotic (probability of activity signature)” value (“PS: anti-psychotic” below) is listed as “++ (5% ≤ ++ <25%)”. Also, the “SD: sedative hypnotic (probability of activity signature)” value (“SD: sedative hypnotic” for short) is listed as “++ (5% ≤ ++ <25%)” and the “UN: uncharacterized CNS activity (probability of activity signature)” value (“UN: uncharacterized CNS activity” for short) is “++++ (50% ≤ ++++)”.

Take `CC[C@H]1OCc2ccccc2[C@H]1N` (single isomer, unassigned) [Example 192]: the minimal effective dose was under 3 mg/kg, the “AD: ADHD” value is listed as “+ (LOQ ≤ + <5%)”, the “AG: analgesic” value is reported as “+ (LOQ ≤ + <5%)” and the “AX: anxiolytic” value is reported as “++ (5% ≤ ++ <25%)”. In addition, the “CE: cognitive enhancer” value was “++ (5% ≤ ++ <25%)”, the “DP: anti-depressant” value is “+ (LOQ ≤ + <5%)”, the “MS: mood stabilizer” value is “+ (LOQ ≤ + <5%)” and the “PS: anti-psychotic” value is “++ (5% ≤ ++ <25%)”. Also, the “SD: sedative hypnotic” value is “++ (5% ≤ ++ <25%)” and the “UN: uncharacterized CNS activity” value is “++++ (50% ≤ ++++)”.

With `CC[C@H]1OCc2ccccc2[C@@H]1N` (single isomer, unassigned) [Example 193], the minimal effective dose was 3 to 10 mg/kg, the “AD: ADHD” value is “+ (LOQ ≤ + <5%)”, the “AG: analgesic” value is “++ (5% ≤ ++ <25%)” and the “AX: anxiolytic” value was “++ (5% ≤ ++ <25%)”. Besides, the “CE: cognitive enhancer” value is recorded as “++ (5% ≤ ++ <25%)”, the “DP: anti-depressant” value was “+ (LOQ ≤ + <5%)”, the “MS: mood stabilizer” value was “+ (LOQ ≤ + <5%)” and the “PS: anti-psychotic” value was “++ (5% ≤ ++ <25%)”. Moreover, the “SD: sedative hypnotic” value is “++ (5% ≤ ++ <25%)” and the “UN: uncharacterized CNS activity” value is recorded as “++++ (50% ≤ ++++)”.

Take `CC[C@@H]1OCc2ccccc2[C@@H]1N.Cl` (single isomer, unassigned) [Example 198]: the minimal effective dose is under 3 mg/kg, the “AD: ADHD” value is “+ (LOQ ≤ + <5%)”, the “AG: analgesic” value is given as “+ (LOQ ≤ + <5%)” and the “AX: anxiolytic” value was “++ (5% ≤ ++ <25%)”. The “CE: cognitive enhancer” value is on record as “++ (5% ≤ ++ <25%)”, the “DP: anti-depressant” value was “++ (5% ≤ ++ <25%)”, the “MS: mood stabilizer” value is listed as “+ (LOQ ≤ + <5%)” and the “PS: anti-psychotic” value is recorded as “+++ (25% ≤ +++ <50%)”. For the same molecule, the “SD: sedative hypnotic” value was “+ (LOQ ≤ + <5%)” and the “UN: uncharacterized CNS activity” value is listed as “+++ (25% ≤ +++ <50%)”.

In the case of `CC[C@H]1OCc2ccccc2[C@@H]1N.Cl` (single isomer, unassigned) [Example 199], the minimal effective dose was under 3 mg/kg, the “AD: ADHD” value is listed as “+ (LOQ ≤ + <5%)”, the “AG: analgesic” value was “++ (5% ≤ ++ <25%)” and the “AX: anxiolytic” value is “++++ (50% ≤ ++++)”. The “CE: cognitive enhancer” value was “++ (5% ≤ ++ <25%)”, the “DP: anti-depressant” value was “+ (LOQ ≤ + <5%)”, the “MS: mood stabilizer” value is “+ (LOQ ≤ + <5%)” and the “PS: anti-psychotic” value is given as “++ (5% ≤ ++ <25%)”. Moreover, the “SD: sedative hypnotic” value is reported as “++ (5% ≤ ++ <25%)” and the “UN: uncharacterized CNS activity” value is “++++ (50% ≤ ++++)”.

For `CC[C@H]1OCc2cccc(Cl)c2[C@@H]1N.Cl` (single isomer, unassigned) [Example 209], the minimal effective dose fell in the range of 3 to 10 mg/kg, the “AD: ADHD” value is listed as “+ (LOQ ≤ + <5%)”, the “AG: analgesic” value is “+++ (25% ≤ +++ <50%)” and the “AX: anxiolytic” value is “++ (5% ≤ ++ <25%)”. The “CE: cognitive enhancer” value was “++ (5% ≤ ++ <25%)”, the “DP: anti-depressant” value is “++ (5% ≤ ++ <25%)”, the “MS: mood stabilizer” value was “+ (LOQ ≤ + <5%)” and the “PS: anti-psychotic” value is reported as “++ (5% ≤ ++ <25%)”. Further, the “SD: sedative hypnotic” value was “++ (5% ≤ ++ <25%)” and the “UN: uncharacterized CNS activity” value is listed as “+++ (25% ≤ +++ <50%)”.

Consider `C[C@@H]1OCc2cc(F)ccc2[C@@H]1N.Cl` (single isomer, unassigned) [Example 212], for which the minimal effective dose lay in the range of 10 to 30 mg/kg, the “AD: ADHD” value is “+ (LOQ ≤ + <5%)”, the “AG: analgesic” value is “++ (5% ≤ ++ <25%)” and the “AX: anxiolytic” value is reported as “++ (5% ≤ ++ <25%)”. Besides, the “CE: cognitive enhancer” value is on record as “+ (LOQ ≤ + <5%)”, the “DP: anti-depressant” value is “+ (LOQ ≤ + <5%)”, the “MS: mood stabilizer” value is recorded as “+ (LOQ ≤ + <5%)” and the “PS: anti-psychotic” value is given as “+ (LOQ ≤ + <5%)”. Besides, the “SD: sedative hypnotic” value is on record as “+ (LOQ ≤ + <5%)” and the “UN: uncharacterized CNS activity” value was “++++ (50% ≤ ++++)”.

For the molecule `C[C@H]1OCc2cc(F)ccc2[C@@H]1N.Cl` (single isomer, unassigned) [Example 213], the minimal effective dose was in the range of 3 to 10 mg/kg, the “AD: ADHD” value was “+ (LOQ ≤ + <5%)”, the “AG: analgesic” value is given as “++ (5% ≤ ++ <25%)” and the “AX: anxiolytic” value is “++ (5% ≤ ++ <25%)”. Further, the “CE: cognitive enhancer” value is “++ (5% ≤ ++ <25%)”, the “DP: anti-depressant” value was “++ (5% ≤ ++ <25%)”, the “MS: mood stabilizer” value is “+ (LOQ ≤ + <5%)” and the “PS: anti-psychotic” value is reported as “++ (5% ≤ ++ <25%)”. For the same molecule, the “SD: sedative hypnotic” value is recorded as “+ (LOQ ≤ + <5%)” and the “UN: uncharacterized CNS activity” value is recorded as “+++ (25% ≤ +++ <50%)”.

`CC[C@@H]1OCc2cccc(Cl)c2[C@@H]1N` (single isomer, unassigned) [Example 218]: the minimal effective dose was under 3 mg/kg, the “AD: ADHD” value was “+ (LOQ ≤ + <5%)”, the “AG: analgesic” value is “+ (LOQ ≤ + <5%)” and the “AX: anxiolytic” value was “++ (5% ≤ ++ <25%)”. The “CE: cognitive enhancer” value is recorded as “++ (5% ≤ ++ <25%)”, the “DP: anti-depressant” value is recorded as “+ (LOQ ≤ + <5%)”, the “MS: mood stabilizer” value is listed as “+ (LOQ ≤ + <5%)” and the “PS: anti-psychotic” value is “++ (5% ≤ ++ <25%)”. Further, the “SD: sedative hypnotic” value is recorded as “+ (LOQ ≤ + <5%)” and the “UN: uncharacterized CNS activity” value is listed as “++++ (50% ≤ ++++)”.

Take `CCC[C@H]1OCc2ccccc2[C@@H]1N` (single isomer, unassigned) [Example 251]: the minimal effective dose fell in the range of 3 to 10 mg/kg, the “AD: ADHD” value is listed as “++ (5% ≤ ++ <25%)”, the “AG: analgesic” value is reported as “+ (LOQ ≤ + <5%)” and the “AX: anxiolytic” value is listed as “++ (5% ≤ ++ <25%)”. Besides, the “CE: cognitive enhancer” value is “+ (LOQ ≤ + <5%)”, the “DP: anti-depressant” value is “+ (LOQ ≤ + <5%)”, the “MS: mood stabilizer” value is reported as “++ (5% ≤ ++ <25%)” and the “PS: anti-psychotic” value was “++ (5% ≤ ++ <25%)”. Also, the “SD: sedative hypnotic” value was “++ (5% ≤ ++ <25%)” and the “UN: uncharacterized CNS activity” value is “++ (5% ≤ ++ <25%)”.

`Cc1cccc2c1[C@@H](C)OC[C@H]2N` (single isomer, unassigned) [Example 254]: the minimal effective dose lay within 3 to 10 mg/kg, the “AD: ADHD” value is recorded as “+ (LOQ ≤ + <5%)”, the “AG: analgesic” value is on record as “+ (LOQ ≤ + <5%)” and the “AX: anxiolytic” value is listed as “+ (LOQ ≤ + <5%)”. Moreover, the “CE: cognitive enhancer” value was “+ (LOQ ≤ + <5%)”, the “DP: anti-depressant” value is given as “+ (LOQ ≤ + <5%)”, the “MS: mood stabilizer” value is reported as “+ (LOQ ≤ + <5%)” and the “PS: anti-psychotic” value was “+ (LOQ ≤ + <5%)”. Moreover, the “SD: sedative hypnotic” value is “++ (5% ≤ ++ <25%)” and the “UN: uncharacterized CNS activity” value is “++ (5% ≤ ++ <25%)”.

As to `CC[C@@H]1OCc2ccccc2[C@@H]1N(C)C.Cl` (single isomer, unassigned) [Example 260], the minimal effective dose was in the range of 3 to 10 mg/kg, the “AD: ADHD” value is reported as “++ (5% ≤ ++ <25%)”, the “AG: analgesic” value is “+ (LOQ ≤ + <5%)” and the “AX: anxiolytic” value is “+ (LOQ ≤ + <5%)”. Further, the “CE: cognitive enhancer” value is “+ (LOQ ≤ + <5%)”, the “DP: anti-depressant” value is on record as “+ (LOQ ≤ + <5%)”, the “MS: mood stabilizer” value is listed as “++ (5% ≤ ++ <25%)” and the “PS: anti-psychotic” value is reported as “+ (LOQ ≤ + <5%)”. Besides, the “SD: sedative hypnotic” value is on record as “++ (5% ≤ ++ <25%)” and the “UN: uncharacterized CNS activity” value was “+ (LOQ ≤ + <5%)”.
